# Entries after “also recorded” stand apart in the source; their conditions may differ. Structures can show the parent of a compound that is named as a salt.
# Key:
# NF-κB = test: EMSA of NF-κB DNA binding activity in nuclear extract; type: cell-based
# Procedure: Electrophoretic mobility shift assay (EMSA): Nuclear extracts were prepared by the method of Schreiber, et al (Schreiber, E., Matthias, P., Muller, M. M. and Schaffner, W. (1989) Nucleic Acids Res. 17, 6419). Briefly, cells were solubilized with a buffer (10 mM HEPES-NaOH, pH 7.9, 10 mM KCl, 0.1 mM EDTA, 0.1 mM EGTA, 0.4% NP-40, 0.5 mM PMSF, 1 μg/ml aprotinin, 1 μg/ml leupeptin, 1 μg/ml pepstatin, 1 mM DTT), and then centrifuged at 10,000 rpm for 15 min. The pellets were resuspended in a buffer (20 mM HEPES-NaOH, pH 7.9, 400 mM NaCl, 1 mM EDTA, 1 mM EGTA, 1 mM PMSF, 1 μg/ml aprotinin, 1 μg/ml leupeptin, 1 μg/ml pepstatin, 1 μg/ml chymostatin, 1 μg/ml antipain, 1 mM DTT), and then centrifuged at 15,000 rpm for 15 min. […] The samples were electrophoresed on an 8% polyacrylamide gel and analyzed by an Imaging plate (Fuji Film).
# In order to find out the mechanism of NF-κB suppression by cPrG-HCl, the effect on the signal transduction system, which functions upstream of NF-κB, was analyzed. […] Next, the effect of cPrG-HCl on phosphorylation and degradation of IκB was analyzed by Western blotting using anti-IκB antibody (FIG. 2E). […] Accordingly, nuclear translocation of NF-κB was analyzed by Western blotting using p65 and p50 which are components of NF-κB (FIG. 2F). […] Further, the state of NF-κB activation in the nucleus was analyzed by EMSA (electrophoretic mobility shift assay) (FIG. 2G). […]
# caspase-3 = test: Caspase-3 assay with DEVD-AFC on cell extracts; type: cell-based; conditions: HeLa cells, cPrG-HCl and TNFα, FIG. 1B; hydrochloride
# Procedure: (§1) Assay for apoptotic processes: Cell viability was determined by dye exclusion assay using 0.1% trypan blue. DNA fragmentation was analyzed as described previously (Kawauchi, K. et al. (1997) Biochem. Biophys. Res. Commun. 237, 543-547). In the caspase-3 assay, cells were disrupted by freeze-thaw in an extraction buffer (50 mM Tris-HCl, pH7.4, 1 mM EGTA, 5 mM EDTA, 5 mM MgCl2, 1 mM APMSF, 10 μg/ml pepstatin, 10 μg/ml leupeptin, and 1 mM DTT). Then the suspension was centrifuged at 15,000 rpm for 20 min, and the supernatants obtained were incubated at 37° C. for 60 min in a reaction buffer (50 mM Tris-HCl, pH7.4, 1 mM EDTA, 10 mM EGTA) with 20 μM of the fluorogenic substrate DEVD-AFC (Peptide Institute, Inc., Japan). Cleavage of the substrates was quantified by measuring the fluorescence of 7-amino-4-trifluomethyl coumarin released using a spectrofluorometer (Shimadzu RF5000) with excitation at 380 mn and emission at 460 nm.
# (§2) HeLa cells were treated with TNFα and cPrG.HCl and the effect of cPrG.HCl on apoptosis was examined by measuring DNA fragmentation and survivability.
# JNK = JNK kinase activity after immune precipitation from HeLa cells; type: cell-based; conditions: 1 μM, TNFα or PMA 15 minutes, FIG. 9A, hydrochloride
# Procedure: HeLa cells were pretreated with cPrG-HCl (1 μM) for 1 hour and then stimulated with TNFα (20 ng/ml) or PMA (1 μg/ml) for 15 minutes, and JNK recovered by an immune precipitation method was then reacted with [γ-^32P]-ATP and a substrate GST-c-Jun, after which SDS-PAGE was carried out and the resulting gel was analyzed by an imaging analyzer. Further, HeLa cells were pretreated with cPrG-HCl (1 μM) for 1 hour and then stimulated with TNFα (20 ng/ml) for 15 minutes, a cell extract was recovered and subjected to SDS-PAGE and Western blotting was carried out using p38 phosphorylation antibody.
# HeLa cells = test: DNA fragmentation (apoptosis) in HeLa cells; type: cell-based; conditions: cPrG-HCl together with TNFα, FIG. 1A, hydrochloride
# Procedure: Cell culture: HeLa cells were cultured in Dulbecco's modified Eagle's medium supplemented with 10% fetal bovine serum and 50 μg/ml kanamycin at 37° C. in 5% CO2 in air.
# as §1, §2
# AP-1 = conditions: earlier abstract of the inventors (Kamata et al., 2000); cited from earlier work
# IL-8 promoter = IL-8 promoter luciferase assay (pIL-8Luc) in HeLa cells; type: cell-based; conditions: TNFα 20 ng/ml 4 hours, FIG. 7
# Procedure: Now in order to analyze the effect of cPrG-HCl on IL-8 gene expression which is controlled by transcription factors such as NF-κB and AP-1, luciferase assay was carried out using a reporter plasmid (pIL-8Luc) in which the luciferase gene is bound downstream of the IL-8 promoter region. In the IL-8 promoter, NF-κB, AP-1, and NF-IL6 binding sequences are present.
# The pIL-8Luc was incorporated into HeLa cells by transfection. After 24 hours, the cells were pretreated with cPrG-HCl at a specified concentration for 1 hour and then stimulated with TNFα (20 ng/ml) for 4 hours, after which luciferase activity was measured.
smiles,measurement,setting,value
"COC1=CC(c2ccc[nH]2)=N/C1=C\c1[nH]c(C)c2c1C(C)CCC2 (stereo not shown) [cPrG-HCl, Cycloprodigiosin hydrochloride]",DNA binding activation of NF-κB,"NF-κB; PMA stimulation, FIG. 3B",inhibited neither
same,DNA binding activity of NF-κB,"NF-κB; TNFα stimulation, FIG. 2G",did not suppress
same,caspase-3 activation,caspase-3,markedly induced; also recorded: marked synergistic caspase-3 activation
same,effect on JNK kinase,JNK,suppressed neither; also recorded: no suppression
same,DNA fragmentation,HeLa cells,marked DNA fragmentation; also recorded: significant DNA fragmentation
same,gene expression induction by AP-1,AP-1,significantly suppressed
same,IL-8 promoter-dependent transcriptional activity induced by TNFα,IL-8 promoter,markedly suppressed

# From patent US20040048791A1, “Method for treating neoplastic cells using cycloprodigiosin or salt thereof” (priority 2002, published 2004)
